1 compound from ChEMBL document CHEMBL3832081, “DailyMed|setid=caaf1b7f-eaab-4fb6-a955-b7d881038fef | METRONIDAZOLE - metronidazole gel|Sandoz Inc” can be followed below.

By Cmax is commonly meant the maximum level reached in the sampled fluid or tissue. A word on the AUC: it is concentration integrated over time. What is called Tmax is the time at which the peak concentration occurs.

This data set in a line: Evaluation of pharmacokinetic parameters for metronidazole following topical administration of metronidazole gel USP, 1% to the face of 13 patients with moderate to severe rosacea. Type of data set: ADME, organism-based. On the set-up: dose 1 g, route topical. The settings on record: human, in vivo, topical or ocular, dosed compound id 31, dosed compound name METRONIDAZOLE, gender male and female, regimen Once daily, study dosing duration 7 days, tissue Plasma.

Under “1 g”, `Cc1ncc([N+](=O)[O-])n1CCO` [METRONIDAZOLE] returned a Cmax of 32 ng/mL. In addition, the AUC (1 g, read-out: AUC(0-24)) came to 595 ng·h/mL. For the same compound, the Tmax (dose 1 g, route topical) fell in the range of 6 to 10 h.
